Experimental data as given in patent US20120108563A1, “Methods Of Treating Liposarcoma” (Infinity Pharmaceuticals, Inc., priority 2009, published 2012).

Tested on: dedifferentiated metastatic liposarcoma
Assay: Administration of compound 2 to a human subject with dedifferentiated metastatic liposarcoma (imaging assessment, RECIST)
Assay type: in vivo
Settings: one human patient
Experimental: A human subject with dedifferentiated metastatic liposarcoma was treated with compound 2 at 400 mg/m^2. The patient received two doses of compound 2 at 400 mg/m^2 during the first cycle of therapy. The patient received two doses at 300 mg/m^2 during the second cycle of therapy. The patient then received 225 mg/m^2 for seven cycles of therapy. […] The patient received a total of 9 cycles of compound 2 with maximal tumor shrinkage occurring after 7 cycles (54% tumor shrinkage).

[1] = after first cycle of therapy (two doses at 400 mg/m^2)

With `C=CCNc1c(O)cc2c(O)c1C[C@@H](C)C[C@H](OC)[C@H](O)[C@@H](C)/C=C(\C)[C@H](OC(N)=O)[C@@H](OC)/C=C\C=C(/C)C(=O)N2.Cl` [compound 2, Hydrochloride Salt of the Hydroquinone of 17-AAG] the maximal tumor shrinkage (after 7 cycles, of 9 cycles in total) was 54%, the “imaging assessment of response (RECIST)” value [1] was “stable disease” and the “tumor shrinkage using Response Evaluation Criteria in Solid Tumors (RECIST)” value [1] was 28%. For the same compound, the response achieved (by the end of cycle 3) was “partial response” and the tumor shrinkage (by the end of cycle 3 (cycle 1 at 400 mg/m^2, cycle 2 at 300 mg/m^2, then 225 mg/m^2)) was 35%.
